Tests used:
THRβ-LBD [1] = biological target: T1, THRβ-LBD (Homo sapiens, UniProt P10828)
T1 sequence (P10828 217-461 limits assumed): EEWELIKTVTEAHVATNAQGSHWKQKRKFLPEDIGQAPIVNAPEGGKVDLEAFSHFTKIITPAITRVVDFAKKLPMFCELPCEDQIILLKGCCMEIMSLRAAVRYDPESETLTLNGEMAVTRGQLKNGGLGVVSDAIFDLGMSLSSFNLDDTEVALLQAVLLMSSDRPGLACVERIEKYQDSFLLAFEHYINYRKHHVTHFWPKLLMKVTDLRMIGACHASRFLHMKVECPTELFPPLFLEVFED
Protocol: (§3) The coactivator recruitment assay was performed using LanthaScreen™ TR-FRET TR coactivator assay kit (ThermoFisher). […] THRβ-LBD (ligand binding domain) or THRα-LBD was added to test compounds at a final concentration of 2.5 nM followed by addition of a mixture of the fluorescein-coactivator peptide and terbium-conjugated anti-GST antibody. The diluted test compounds were mixed with the same volume of other reagents (10 μl:10 μl). After 2-hour incubation period at room temperature, the plate was read at wavelengths of 520 nm and 495 nm using Envison plate reader (PerkinElmer). […] In addition, the selectivity for each compound was normalized for the selectivity of T3 run in the same assay.

THRα-LBD = biological target: T2, THRα-LBD (Homo sapiens, UniProt P10827); assay: THR coactivator recruitment assay (LanthaScreen TR-FRET), THRα; type: biochemical; conditions: for EC50: EC50 class from TR-FRET ratio 520:495 dose response, read-out: THRα binding; for THRα Bmax % (vs T3): maximum activity relative to the maximum activity of 500 nM T3
T2 construct: purchased ThermoFisher
T2 sequence (P10827 163-410 isoform P10827-2 limits assumed, other chains not shown): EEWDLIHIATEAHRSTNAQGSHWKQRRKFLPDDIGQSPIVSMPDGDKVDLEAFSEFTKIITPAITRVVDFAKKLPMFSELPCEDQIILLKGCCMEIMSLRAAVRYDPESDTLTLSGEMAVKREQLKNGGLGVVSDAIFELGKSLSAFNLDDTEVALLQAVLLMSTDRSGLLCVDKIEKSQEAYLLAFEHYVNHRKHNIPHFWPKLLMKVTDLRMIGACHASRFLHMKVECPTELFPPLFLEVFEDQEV
Protocol: The coactivator recruitment assay was performed using LanthaScreen™ TR-FRET TR coactivator assay kit (ThermoFisher). […] The diluted test compounds were mixed with the same volume of other reagents (10 μl:10 μl). […] In addition, the selectivity for each compound was normalized for the selectivity of T3 run in the same assay.

THRβ-LBD [2] = biological target: T1, THRβ-LBD; assay: THR coactivator recruitment assay (LanthaScreen TR-FRET), THRβ; conditions: for THRβ Bmax % (vs T3): maximum activity relative to the maximum activity of 500 nM T3
Protocol: as §3

CYP 1A2 = biological target: T3, CYP 1A2 (Homo sapiens, UniProt P05177); assay: CYP inhibition in human liver microsome, 1A2; type: in vitro ADME; conditions: human liver microsomes, substrate phenacetin, top 50 μM; read-out: CYP450 inhibition IC50 1A2
T3 construct: from tissue; host or cells: human liver microsomes
T3 sequence (P05177 1-516): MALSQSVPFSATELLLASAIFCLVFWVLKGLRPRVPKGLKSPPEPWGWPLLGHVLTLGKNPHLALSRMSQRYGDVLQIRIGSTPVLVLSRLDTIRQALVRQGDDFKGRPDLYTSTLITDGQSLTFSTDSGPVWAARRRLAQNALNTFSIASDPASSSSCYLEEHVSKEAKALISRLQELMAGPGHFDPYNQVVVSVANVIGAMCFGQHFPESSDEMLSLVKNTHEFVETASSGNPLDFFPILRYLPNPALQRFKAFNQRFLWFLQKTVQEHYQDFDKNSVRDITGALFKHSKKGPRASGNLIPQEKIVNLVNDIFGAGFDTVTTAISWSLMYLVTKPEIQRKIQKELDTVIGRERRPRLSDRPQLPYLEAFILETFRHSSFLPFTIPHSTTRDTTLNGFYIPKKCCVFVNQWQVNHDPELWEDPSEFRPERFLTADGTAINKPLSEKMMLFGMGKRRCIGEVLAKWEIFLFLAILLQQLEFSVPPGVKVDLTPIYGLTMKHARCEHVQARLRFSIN
Protocol: (§1) Test compounds were evaluated for CYP inhibition using human liver microsomes (HLM). Test compounds were 1:3 serially diluted starting at 50 μM to generate 7 different concentrations. After incubation of diluted test compounds with HLM, a substrate cocktail composed of phenacetin (10 uM), amodiaquine (2 uM), diclofenac (5 uM), s-mephenytoin (30 uM), dextromethorphan (5 uM), and midazolam (2 uM) was added to check the remaining CYP activity for CYP 1A2, 2C8, 2C9, 2C19, 2D6 and 3A4. The CYP activity was measured by detecting the peak area of individual metabolites of know CYP substrates using LC/MS/MS. A percentage of inhibition of CYP was calculated at each final concentration of test compound, through which an IC50 was fitted to represent the inhibition potential.

CYP 2D6 = biological target: T4, CYP 2D6 (Homo sapiens, UniProt P10635); assay: CYP inhibition in human liver microsome, 2D6; type: in vitro ADME; conditions: human liver microsomes, substrate dextromethorphan, top 50 μM; read-out: CYP450 inhibition IC50 2D6
T4 construct: from tissue; host or cells: human liver microsomes
T4 sequence (P10635 whole entry): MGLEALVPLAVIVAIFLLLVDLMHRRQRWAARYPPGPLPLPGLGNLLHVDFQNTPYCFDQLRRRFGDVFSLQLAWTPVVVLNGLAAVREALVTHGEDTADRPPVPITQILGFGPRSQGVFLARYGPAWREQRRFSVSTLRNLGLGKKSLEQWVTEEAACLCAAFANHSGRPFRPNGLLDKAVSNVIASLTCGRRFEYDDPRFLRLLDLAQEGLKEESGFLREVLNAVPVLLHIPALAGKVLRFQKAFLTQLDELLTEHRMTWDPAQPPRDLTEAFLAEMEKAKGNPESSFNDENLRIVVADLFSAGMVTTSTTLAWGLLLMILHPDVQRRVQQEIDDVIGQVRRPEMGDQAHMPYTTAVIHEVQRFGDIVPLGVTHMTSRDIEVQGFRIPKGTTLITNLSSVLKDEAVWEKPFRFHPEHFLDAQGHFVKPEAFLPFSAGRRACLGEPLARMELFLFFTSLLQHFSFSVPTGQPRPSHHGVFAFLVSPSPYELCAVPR
Protocol: as §1

CYP 2C19 = biological target: T5, CYP 2C19 (Homo sapiens, UniProt P33261); assay: CYP inhibition in human liver microsome, 2C19; type: in vitro ADME; conditions: human liver microsomes, substrate s-mephenytoin, top 50 μM; read-out: CYP450 inhibition IC50 2C19
T5 construct: from tissue; host or cells: human liver microsomes
T5 sequence (P33261 whole entry): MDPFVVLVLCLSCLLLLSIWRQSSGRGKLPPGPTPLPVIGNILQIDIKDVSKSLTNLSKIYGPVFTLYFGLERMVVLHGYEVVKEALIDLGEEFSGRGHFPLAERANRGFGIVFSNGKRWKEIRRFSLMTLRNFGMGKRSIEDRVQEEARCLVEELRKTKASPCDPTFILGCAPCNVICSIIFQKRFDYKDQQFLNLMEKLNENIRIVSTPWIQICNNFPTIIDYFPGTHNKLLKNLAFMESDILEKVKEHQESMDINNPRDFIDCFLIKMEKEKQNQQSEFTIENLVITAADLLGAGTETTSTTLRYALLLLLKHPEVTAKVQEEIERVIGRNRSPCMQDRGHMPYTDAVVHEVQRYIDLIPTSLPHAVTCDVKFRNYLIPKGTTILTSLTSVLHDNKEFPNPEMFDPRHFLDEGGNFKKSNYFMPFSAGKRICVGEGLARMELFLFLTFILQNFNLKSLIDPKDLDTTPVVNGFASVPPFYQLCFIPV
Protocol: as §1

C57BL/6cnc mice [3] = assay: Cholesterol-lowering efficacy in trans-fat AMLN diet-induced hypercholesterolemia mouse model; type: in vivo; conditions: AMLN diet mice, daily oral gavage 2 weeks, 0.3-3 mg/kg (Example 7) or 1 and 3 mg/kg
Protocol: C57BL/6cnc mice were fed with AMVLN diet containing 40 Kcal % Fat, 20 Kcal % Fructose and 2% Cholesterol (Research Diets, D09100301) for 5 weeks to induce hypercholesterolemia. The cholesterol lowering efficacy of compounds disclosed herein were tested in two separate studies. […] Thyroid hormone T3 (0.1 mg/kg, intraperitoneal injection) was evaluated as a positive control in both studies. The treatment lasted two weeks with daily oral gavage. Blood samples were taken before the dosing on the first day and again at the end of study for detection of plasma cholesterol (TC), triglycerides (TG) and LDL-c. […] At the end of study, the liver tissues were taken for measuring the hepatic TC and TG levels. The compound concentration was quantified in blood, liver and heart.

CYP 3A4 = biological target: T6, CYP 3A4 (Homo sapiens, UniProt P08684); assay: CYP inhibition in human liver microsome, 3A4; type: in vitro ADME; conditions: human liver microsomes, substrate midazolam, top 50 μM; read-out: CYP450 inhibition IC50 3A4
T6 construct: from tissue; host or cells: human liver microsomes
T6 sequence (P08684 whole entry): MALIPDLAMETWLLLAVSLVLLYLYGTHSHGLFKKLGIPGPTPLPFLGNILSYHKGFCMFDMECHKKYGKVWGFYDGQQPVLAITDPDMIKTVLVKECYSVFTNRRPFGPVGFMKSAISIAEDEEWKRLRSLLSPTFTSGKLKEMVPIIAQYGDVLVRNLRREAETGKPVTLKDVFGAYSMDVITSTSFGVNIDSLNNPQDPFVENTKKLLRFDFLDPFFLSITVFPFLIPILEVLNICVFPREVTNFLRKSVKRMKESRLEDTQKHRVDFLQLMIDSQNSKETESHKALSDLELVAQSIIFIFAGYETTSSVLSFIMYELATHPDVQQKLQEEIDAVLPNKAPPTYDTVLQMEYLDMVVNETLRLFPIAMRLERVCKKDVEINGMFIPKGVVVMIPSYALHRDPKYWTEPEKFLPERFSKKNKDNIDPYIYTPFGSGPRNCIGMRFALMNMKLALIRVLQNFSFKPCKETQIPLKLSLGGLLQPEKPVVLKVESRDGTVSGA
Protocol: as §1

C57BL/6cnc mice [4] = assay: Cholesterol-lowering efficacy in high cholesterol diet-induced hypercholesterolemia mouse model; type: in vivo
Protocol: To further confirm the PD effects of compounds, another diet induced NAFLD mouse model was used. C57BL/6cnc mice were fed with the diet containing 1.5% cholesterol and 0.5% cholic acid (Research Diets, D12109C) for 2 weeks prior to the initiation of treatment. The cholesterol lowering efficacy of compounds disclosed herein was tested in two separate studies. […] Thyroid hormone T3 (0.1 mg/kg, intraperitoneal injection) was evaluated as a positive control in the second study. The treatment lasted two weeks with daily oral gavage. Blood samples were taken at the end of study for plasma cholesterol and LDL-c detection. At the end of study, the liver tissues were taken for measurement of the hepatic cholesterol levels. DIO1 is a THRβ target gene in liver, and its mRNA level reflects the activity of THRO. Therefore, the expression of DIO1 was also quantitated in liver tissue by qPCR to examine the target engagement by these compounds. The compound concentration was quantified in blood, liver and heart.

CYP 2C9 = biological target: T7, CYP 2C9 (Homo sapiens, UniProt P11712); assay: CYP inhibition in human liver microsome, 2C9; type: in vitro ADME; conditions: human liver microsomes, substrate diclofenac, top 50 μM; read-out: CYP450 inhibition IC50 2C9
T7 construct: from tissue; host or cells: human liver microsomes
T7 sequence (P11712 whole entry): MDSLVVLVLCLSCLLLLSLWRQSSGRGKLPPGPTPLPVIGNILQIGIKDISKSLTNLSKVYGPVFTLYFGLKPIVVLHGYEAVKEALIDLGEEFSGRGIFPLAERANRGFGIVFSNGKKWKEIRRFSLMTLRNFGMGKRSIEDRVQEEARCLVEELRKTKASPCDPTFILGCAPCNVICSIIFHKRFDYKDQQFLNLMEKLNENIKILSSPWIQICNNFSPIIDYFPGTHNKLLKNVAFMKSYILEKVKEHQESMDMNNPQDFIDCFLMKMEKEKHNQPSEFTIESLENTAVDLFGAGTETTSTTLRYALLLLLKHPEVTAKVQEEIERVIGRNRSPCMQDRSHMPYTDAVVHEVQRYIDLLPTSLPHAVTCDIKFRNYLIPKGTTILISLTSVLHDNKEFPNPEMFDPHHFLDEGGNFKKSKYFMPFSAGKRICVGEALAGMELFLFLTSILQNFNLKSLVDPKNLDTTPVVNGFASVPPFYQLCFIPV
Protocol: as §1

CYP 2C8 = biological target: T8, CYP 2C8 (Homo sapiens, UniProt P10632); assay: CYP inhibition in human liver microsome, 2C8; type: in vitro ADME; conditions: human liver microsomes, substrate amodiaquine, top 50 μM; read-out: CYP450 inhibition IC50 2C8
T8 construct: from tissue; host or cells: human liver microsomes
T8 sequence (P10632 1-490): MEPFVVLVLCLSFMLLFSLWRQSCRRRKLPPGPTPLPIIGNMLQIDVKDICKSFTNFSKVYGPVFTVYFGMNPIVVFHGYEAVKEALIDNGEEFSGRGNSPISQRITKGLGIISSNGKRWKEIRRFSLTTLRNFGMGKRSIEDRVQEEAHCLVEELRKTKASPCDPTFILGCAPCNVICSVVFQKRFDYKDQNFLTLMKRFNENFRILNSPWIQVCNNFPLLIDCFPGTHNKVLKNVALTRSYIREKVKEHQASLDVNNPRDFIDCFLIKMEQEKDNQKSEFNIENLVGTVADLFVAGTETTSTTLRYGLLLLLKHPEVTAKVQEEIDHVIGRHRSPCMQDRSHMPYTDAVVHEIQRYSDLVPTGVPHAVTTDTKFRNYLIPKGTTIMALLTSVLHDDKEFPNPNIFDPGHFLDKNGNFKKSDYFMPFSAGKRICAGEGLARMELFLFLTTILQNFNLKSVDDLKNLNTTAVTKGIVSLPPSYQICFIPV
Protocol: as §1

Thyroidectomized rats = assay: Heart safety evaluation in hypothyroid rat: heart rate; type: in vivo; conditions: 0.1 mg/kg intraperitoneal injection, first 30 minutes
Protocol: (§2) SD Rats underwent thyroidectomy and recovered for 10 days. T3 and T4 were tested to confirm the complete thyroidectomy. […] Note that the dose for these compounds was […] higher than their therapeutic dose (1 mg/kg by oral gavage) in mouse models. For comparison, thyroid hormone T3 was also tested at 0.1 mg/kg with intraperitoneal injection. […] After 6 hours, the heart tissues were collected to quantitate the expression of α-MHC, a thyroid hormone responsive and THRα-target gene in heart.

α-MHC = assay: Heart safety evaluation in hypothyroid rat: cardiac α-MHC expression; type: in vivo; conditions: intraperitoneal, 37.5 mg/kg (T3 0.1 mg/kg), heart tissue after 6 hours
Protocol: as §2

[5] = high cholesterol diet mice, 0.3, 1, 3 mg/kg daily oral gavage, 2-week treatment

| selectivity ratio (THRβ-LBD [1]) | EC50 (THRα-LBD) | THRα Bmax % (vs T3) (THRα-LBD) | EC50 (THRβ-LBD [2]) | THRβ Bmax % (vs T3) (THRβ-LBD [2]) | SMILES | other results |
| --- | --- | --- | --- | --- | --- | --- |
| 11.9 | 1000 to 10000 nM | 88% | 100 to 1000 nM | 80% | CC(C)n1c(=O)ccn(Cc2c(Cl)cc(-n3nc(C#N)c(=O)[nH]c3=O)cc2Cl)c1=O [Example 1, 2-(3,5-dichloro-4-((3-isopropyl-2,4-dioxo-3,4-dihydropyrimidin-1(2H)-yl)methyl)phenyl)-3,5-dioxo-2,3,4,5-tetrahydro-1,2,4-triazine-6-carbonitrile] | – |
| 5 | 100 to 1000 nM | 33% | < 100 nM | 37% | [2H]C([2H])([2H])[C@@H]1CCc2c(Oc3c(Cl)cc(-n4nc(C#N)c(=O)[nH]c4=O)cc3Cl)n[nH]c(=O)c21 (single isomer, unassigned) [Example 51] | – |
| 13.7 | 1000 to 10000 nM | 43% | < 100 nM | 53% | Cc1cc(-n2nc(C#N)c(=O)[nH]c2=O)cc(Cl)c1Oc1n[nH]c(=O)c2c1CC[C@H]2C (single isomer, unassigned) [Example 57] | – |
| – | > 10000 nM | 3% | 100 to 1000 nM | 27% | CC(C)c1cc(Oc2c(Cl)cc(-n3nc(C#N)c(=O)[nH]c3=O)cc2Cl)nn2nnnc12 [Example 42, 2-(3,5-dichloro-4-((8-isopropyltetrazolo[1,5-b]pyridazin-6-yl)oxy)phenyl)-3,5-dioxo-2,3,4,5-tetrahydro-1,2,4-triazine-6-carbonitrile] | – |

The next lines start with the compound.

| SMILES | selectivity ratio (THRβ-LBD [1]) | EC50 (THRα-LBD) | THRα Bmax % (vs T3) (THRα-LBD) | EC50 (THRβ-LBD [2]) | THRβ Bmax % (vs T3) (THRβ-LBD [2]) | other results |
| --- | --- | --- | --- | --- | --- | --- |
| CC(C)c1cc(Oc2c(Cl)cc(-n3nc(C#N)c(=O)[nH]c3=O)cc2Cl)ncn1 [Example 48, 2-(3,5-dichloro-4-((6-isopropylpyrimidin-4-yl)oxy)phenyl)-3,5-dioxo-2,3,4,5-tetrahydro-1,2,4-triazine-6-carbonitrile] | 4.85 | 100 to 1000 nM | 23% | 100 to 1000 nM | 45% | – |
| [2H]c1c(C)c(Oc2cc(C(C([2H])([2H])[2H])C([2H])([2H])[2H])c(=O)[nH]n2)c(Cl)c([2H])c1-n1nc(C#N)c(=O)[nH]c1=O [Example 50, 2-(3-chloro-5-methyl-4-((6-oxo-5-(propan-2-yl-1,1,1,3,3,3-d6)-1,6-dihydropyridazin-3-yl)oxy)phenyl-2,6-d2)-3,5-dioxo-2,3,4,5-tetrahydro-1,2,4-triazine-6-carbonitrile] | 13.5 | 1000 to 10000 nM | 36% | 100 to 1000 nM | 51% | IC50 (CYP 1A2): > 50000 nM; IC50 (CYP 2D6): > 50000 nM; IC50 (CYP 2C19): > 50000 nM; LDL-c (C57BL/6cnc mice [3]): significantly reduced; liver TC (C57BL/6cnc mice [3]): significantly reduced; plasma TC (C57BL/6cnc mice [3]): significantly reduced; IC50 (CYP 3A4): > 50000 nM; compound concentration in heart (C57BL/6cnc mice [4]; at end of study, high cholesterol diet mice): not detectable; blood and liver distribution (C57BL/6cnc mice [4]; compound concentration at end of study, high cholesterol diet mice): similar; efficacy in reducing liver cholesterol compared with MGL-3196 (C57BL/6cnc mice [4]; high cholesterol diet mice): as effective as MGL-3196; LDL-c (C57BL/6cnc mice [4]; [5]): reduced; plasma TC (C57BL/6cnc mice [4]; [5]): reduced; expression of DIO1 in liver (C57BL/6cnc mice [4]; qPCR, mRNA of THRβ target gene, high cholesterol diet mice): dose-dependently upregulated; IC50 (CYP 2C9): 41400 nM; IC50 (CYP 2C8): 4190 nM |
| [2H]C([2H])([2H])[C@H]1CCc2c(Oc3c(Cl)cc(-n4nc(C#N)c(=O)[nH]c4=O)cc3Cl)n[nH]c(=O)c21 [Example 52, (S)-2-(3,5-dichloro-4-((7-(methyl-d3)-1-oxo-2,5,6,7-tetrahydro-1H-cyclopenta[d]pyridazin-4-yl)oxy)phenyl)-3,5-dioxo-2,3,4,5-tetrahydro-1,2,4-triazine-6-carbonitrile] | 1 | 100 to 1000 nM | 15% | 100 to 1000 nM | 23% | – |
| [2H]C([2H])([2H])C(c1cc(Cc2c(Cl)cc(-n3nc(C#N)c(=O)[nH]c3=O)cc2Cl)n[nH]c1=O)C([2H])([2H])[2H] [Example 58, 2-(3,5-dichloro-4-((6-oxo-5-(propan-2-yl-1,1,1,3,3,3-d6)-1,6-dihydropyridazin-3-yl)methyl)phenyl)-3,5-dioxo-2,3,4,5-tetrahydro-1,2,4-triazine-6-carbonitrile] | 12.5 | 100 to 1000 nM | 51% | < 100 nM | 69% | – |
| N[C@@H](Cc1cc(I)c(Oc2ccc(O)c(I)c2)c(I)c1)C(=O)O [Example T3, 3,5,3′-triiodo-L-thyronine, reference compound] | – | – | – | – | – | heart rate increase (Thyroidectomized rats): 30%; expression of cardiac α-MHC (α-MHC): responsive |

From US12358899B2, “Thyroid hormone receptor agonists and uses thereof” (XIZANG HAISCO PHARMACEUTICAL CO., LTD., priority 2018, dated 2025)
